Results from US20040131574A1, “Method and composition for the control of hair growth” (priority 2001, published 2004).

Legend:
Type in all cases: in vivo
[1] = test system: hair regrowth; experiment: hair regrowth after shaving in dogs treated s.c. for 20 days; settings: s.c. 4.3 mg/kg/d for 20 days, shaved 5 days post-drug, observed approximately 8 weeks post-drug
Method: Two dogs were treated with (R,R)—(HO)2DEHSPM (dihydroxydiethylhomospermine) s.c. at a dose of 4.3 mg/kg/d for 20 days. The dogs were Holter-Monitored once weekly for evidence of cardiac rhythm disturbances. A post-drug Holter monitoring was performed 5 days post-drug and hair was shaved at that time to allow for the placing of the leads.

[2] = test system: hair regrowth; experiment: hair regrowth after shaving in dogs treated s.c. twice daily for 13 days, versus saline control dog; settings: total daily dose 4-3 mg/kg; for relative order of hair regrowth: approximately 6 weeks post-drug; for hair regrowth compared with control dog: shaved 3 days post-drug, observed approximately 6 weeks post-drug
Method: Several dogs were treated with (R,R) or (S,S)—(HO)2DEHSPM s.c. twice daily for 13 days. The total daily dose was 4-3 mg/kg. One additional dog served as a saline-treated control animal. All of the dogs were Holter monitored once weekly for evidence of cardiac rhythm disturbances. A post-drug Holter monitoring was performed 3 days post-drug and hair was shaved at that time to allow for the placing of the leads.

[3] = test system: hair growth in the shaved area; experiment: hair re-growth in partially shaven mice; settings: C57/B16 mice
Method: Fourteen C57/B16 mice were partially shaven; one was maintained as a control and to the remainder was administered diethyl-homospermine [10 mg/kg-0.01% solution (Bid)], six times daily over 9 days.
The above test (Example 1) was repeated except that the dosage of polyamine was 7.5 mg/kg.

Row | SMILES | hair regrowth at shaved Holter lead sites [1] | relative order of hair regrowth [2] | hair regrowth compared with control dog [2] | resumption of normal hair growth in the shaved area ([3]; 10 mg/kg-0.01% solution (Bid), six times daily over 9 days) | normal hair re-growth in the shaved areas ([3]; dosage 7.5 mg/kg, otherwise as Example 1)
1 | CCNC[C@H](O)CCNCCCCNCC[C@@H](O)CNCC [(R,R)—(HO)2DEHSPM, (R,R)-dihydroxydiethylhomospermine] | hair from the last Holter monitoring had not grown back | control dog >(S,S)—(HO)2DEHSPM dogs>(R,R)—HO2DEHSPM dogs | this was not the case with the treated animals |  | 
2 | CCNC[C@@H](O)CCNCCCCNCC[C@H](O)CNCC [(S,S)—(HO)2DEHSPM, (S,S)-dihydroxydiethylhomospermine] |  | control dog >(S,S)—(HO)2DEHSPM dogs>(R,R)—HO2DEHSPM dogs | this was not the case with the treated animals |  | 
3 | CCNCCCCNCCCCNCCCCNCC [diethyl-homospermine, N,N′-diethylhomospermine] |  |  |  | The control resumed normal hair growth immediately in the shaved area, unlike the remainder of the mice in the test | the mice treated with the polyamine did not
